Bounds are passed on as bounds.

Data set [1] deals with HCT-8 colorectal cell line model. As to the kind of experiment: Colony formation assay, HCT-8. The data set is classed as cell-based. As to conditions: HCT-8, increasing concentrations of compound plus fixed 1 μmol/L FUdR, vs single agents. As to the method:
(§1) Colony forming assay showing the ability of colon (SW620, HCT 116), non-small cell lung (A549, H460, H1299 and H358) and breast (MCF7) cancer cells to survive and proliferate following transient 24 hour exposure to single agent PCI 1013, FUdR and combinations. Specifically, cells were seeded at densities between 50 and 100 cells/well in 24-well plates. Twenty-four hours later, cells were treated with increasing concentrations of PCI 10213, a fixed dose of FUdR and combinations of these. After 24 hours, drug was removed, cells were rinsed and allowed to outgrow for 10-14 days. At the conclusion of the outgrowth, cells were fixed in 60% ice cold methanol and stained with 0.1% crystal violet, scanned and counted. Data is presented as percentage of untreated controls (mean±SD). Fraction affected and combination indexes were calculated according to the method of Chou and Talalay where <1 is indicative of a synergistic drug interaction.
Colony forming assays were subsequently performed to evaluate the effectiveness of additional PCI compounds alone and in combination with FUdR at reducing cancer cell viability in the HCT-8 colorectal cell line model. […] Subsequently, increasing concentrations of PCI compounds were combined with a fixed dose of 1 μmol/L FUdR to evaluate the combined drug effect.

Data set [2] concerns colorectal (HCT116), breast (MCF-7) and non-small cell lung (H1299, A549, H358 and H460) cell line models. As to the kind of experiment: Colony formation assay, all cell lines evaluated. The format is cell-based. As to conditions: all cell lines examined (cell lines not named at b507). How it is done: as §1
Subsequently, increasing concentrations of PCI 10213 were combined with a fixed dose of FUdR to evaluate the combined drug effect. In NSCLC cells, concentrations of PCI 10213 ranging from 3.1 μmol/L to 25 μmol/L were combined with 1 μmol/L FUdR. […] The effectiveness of this combination was pronounced in A549 and H460 cells where 12.5 and 25 μmol/L PCI 10213 combined with 1 μmol/L FUdR reduced cell viability by >95% compared to vehicle-treated controls.

Data set [3] concerns HCT116 cells.
A further data set concerns SW620 cells. As to the kind of experiment: MTS growth inhibition assay, SW620.
The subject of a further data set is A549 cells. The data set can be described thus: MTS growth inhibition assay, A549. As to conditions: A549, 72 hours, 100 μmol/L single agent.
In a further data set the test system is H1299 cells. The data set can be described thus: MTS growth inhibition assay, H1299. The note with it: H1299, 72 hours, 100 μmol/L single agent.
For data set [4], the system named is HCT116 cells. The data set can be described thus: Colony formation assay, HCT116. The data set is classed as cell-based. The note with it: HCT116, increasing concentrations of compound plus fixed 0.5 μmol/L FUdR, vs single agents. As to the method: as §1, with “interaction. […]” for “interaction.”
In colorectal cancer cells, concentrations of PCI 10213 ranging from 3.1 μmol/L to 50 μmol/L were combined with 0.5 μmol/L FUdR in HCT116 cells and 1 μmol/L FUdR in SW620 cells.

Experimental for A549 cells: (§2) The Cell Titer^96 AQueous MTS assay (Promega) was carried out according to the manufacturers guidelines. […] The combination effect was determined by the combination index (CI) method utilizing Calcusyn software (Biosoft, Ferguson, Mo.). Fraction affected (FA) was calculated from the percent growth inhibition: FA=(100−% growth inhibition)/100. CI values <1, synergism; 1-1.2, additive and >1.2, antagonism.
(§3) The NSCLC cell lines A549 and H1299 were exposed to increasing concentrations of each agent for 72 hours and growth inhibition was directly compared to vehicle-treated controls.
Experimental for H1299 cells: as §2, §3
Experimental for SW620 cells: as §2
HCT116 and SW620 cells were exposed to increasing concentrations of each agent for 72 hours and growth inhibition was directly compared to vehicle-treated controls.

Take `CC[C@@](O)(Cn1nncc1CCCCNC1(C)CCC(=O)NC1=O)c1ccc(F)c(OCC2CC2)c1` (some centres unmarked) [PCI 10933]: the “colonies formed / combined drug effect with FUdR” value in data set [1] is “Substantial reductions in colonies formed”.

For the molecule `CC[C@@](O)(Cn1nncc1CCCCn1ccc(=O)[nH]c1=O)c1ccc(F)c(OCC2CC2)c1` [PCI 10950, reference compound], the “colonies formed / combined drug effect with FUdR” value in data set [1] is “strong synergy”. Besides, the “combined drug effect with fixed doses of FUdR” value in data set [2] is “strong synergy”.

For the molecule `CC[C@@](O)(Cn1nncc1CCCCC1Cc2cccc(OC)c2NC1=O)c1ccc(F)c(OCC2CC2)c1` (some centres unmarked) [PCI 10929], the “colonies formed / combined drug effect with FUdR” value in data set [1] is recorded as “Substantial reductions in colonies formed”.

As for `CC[C@@](O)(Cn1nncc1CCCNC1CCC(=O)NC1=O)c1ccc(F)c(OCC2CC2)c1` (some centres unmarked) [PCI 10927], the “colonies formed / combined drug effect with FUdR” value in data set [1] is on record as “Substantial reductions in colonies formed”.

Turning to `O=c1[nH]cc(F)c(=O)[nH]1` [5-FU, 5-fluorouracil, reference compound], the “growth inhibition, 5-FU alone” value is reported as “dose-dependent increases in growth inhibition” in the data set on HCT116 cells [3] (HCT116, 0 to 100 μmol/L) and “dose-dependent increases in growth inhibition” with SW620 cells (SW620, 0 to 100 μmol/L).

Turning to `C[C@@H](NS(=O)(=O)CC/C=C/CC1SC(=O)NC1=O)c1cccc(OCC2CC2)c1` (some centres unmarked) [PCI 10214], the “single agent activity (growth inhibition vs vehicle)” value in the data set with HCT116 cells [3] (HCT116, 72 hours, up to 75 μmol/L) is given as “little to no single agent activity”; in the data set on SW620 cells (SW620, 72 hours, up to 75 μmol/L) it was “neither PCI 10213 or 10214 had any single agent activity”. Further, in the data set with A549 cells, the “decrease in growth / reduction in proliferation” value is listed as approximately 25%. Also, in the data set with SW620 cells (SW620, 72 hours, 100 μmol/L single agent), the “single agent activity / decrease in proliferation” value is approximately 30%. Moreover, the “decrease in cell proliferation” value in the data set on H1299 cells was not above 40%.

Turning to `CC[C@@](O)(Cn1nncc1CCCCc1cnc2c(c1)CCC(=O)N2)c1ccc(F)c(OCC2CC2)c1` [PCI 10928], the “colonies formed / combined drug effect with FUdR” value in data set [1] is “Substantial reductions in colonies formed”.

For the molecule `CC[C@@](O)(Cn1nncc1CCCCCC1CCC(=O)NC1=O)c1ccc(F)c(OCC2CC2)c1` (some centres unmarked) [PCI 10952], the “colonies formed, combination with FUdR” value with HCT116 cells [4] is listed as “modest reductions in colonies formed”.

For `CC[C@@](O)(Cn1nncc1CCCCC1C(=O)Nc2ncccc21)c1ccc(F)c(OCC2CC2)c1` (some centres unmarked) [PCI 10930], the “colonies formed / combined drug effect with FUdR” value in data set [1] is “Substantial reductions in colonies formed”.

As for `CC[C@@](O)(Cn1nncc1CCCCC1CCC(=O)NC1=O)c1ccc(F)c(OCC2CC2)c1` (some centres unmarked) [PCI 10951], the “colonies formed, combination with FUdR” value in the data set on HCT116 cells [4] is listed as “Substantial reductions in colonies formed”. The “colonies formed / combined drug effect with FUdR” value in data set [1] is reported as “Substantial reductions in colonies formed”.

These data come from patent US10889563B2, “Deoxyuridine triphosphatase inhibitors” (University of Southern California, priority 2013, dated 2021).
